Data: patent publication US8796307B2, “Beta2-adrenoreceptor agonists” (Novartis AG, priority 1999, dated 2014)
Structures can show the parent of a compound that is named as a salt. Where two headings read alike, the source gives them in different places.

Key:
β2-adrenoreceptor = β2-adrenoreceptor (Homo sapiens, UniProt P07550); assay: cAMP determination in cells expressing β2-adrenoreceptor; type: cell-based; settings: read-out: EC50 (β2), binding potency measured by cAMP determination
Source text: (§1) Accordingly the invention also provides a compound of formula I in free, salt or solvate form for use as a pharmaceutical. […] The β2 agonist activity, onset of action and duration of action of the agents of the invention may be tested using the guinea pig tracheal stip in vitro assay according to the procedure of R. A. Coleman and A. T. Nials, J. Pharmacol. Methods (1989), 21(1), 71-86. The binding potency and selectivity for the β2-adrenoreceptor relative to the β1-adrenoreceptor can be measured by a classical filtration binding assay according to the procedure of Current Protocols in Pharmacology (S. J. Enna (editor-in-chief) et al, John Wiley & Son, Inc, 1998), or by cAMP determination in cells expressing β2- or β1-adrenoceptor, according to the procedure of B. January et al, British J. Pharmacol. 123: 701-711 (1998).

β1-adrenoreceptor = β1-adrenoreceptor (Homo sapiens, UniProt P08588); assay: cAMP determination in cells expressing β1-adrenoreceptor; type: cell-based
β1-adrenoreceptor, sequence (P08588 whole entry, species assumed): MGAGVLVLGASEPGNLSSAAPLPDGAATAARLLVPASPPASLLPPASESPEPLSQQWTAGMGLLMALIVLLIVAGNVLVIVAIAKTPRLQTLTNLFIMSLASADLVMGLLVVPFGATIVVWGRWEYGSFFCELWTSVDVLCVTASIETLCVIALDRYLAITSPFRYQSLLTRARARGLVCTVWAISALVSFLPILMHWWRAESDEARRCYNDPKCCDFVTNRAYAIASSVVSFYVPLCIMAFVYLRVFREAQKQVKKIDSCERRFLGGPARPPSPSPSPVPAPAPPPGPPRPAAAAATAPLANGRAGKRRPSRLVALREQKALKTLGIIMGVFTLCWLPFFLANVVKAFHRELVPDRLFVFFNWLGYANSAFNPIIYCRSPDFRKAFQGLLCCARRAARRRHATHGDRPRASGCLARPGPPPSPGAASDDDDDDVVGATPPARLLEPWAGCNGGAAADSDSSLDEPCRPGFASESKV
Source text: as §1

[1] = system: guinea pig tracheal strip; assay: guinea pig tracheal strip in vitro assay
Source text: as §1

[2] = cells expressing β1-adrenoreceptor, read-out: EC50 (β1), binding potency measured by cAMP determination

β2-adrenoreceptor, sequence (P07550 whole entry, species assumed): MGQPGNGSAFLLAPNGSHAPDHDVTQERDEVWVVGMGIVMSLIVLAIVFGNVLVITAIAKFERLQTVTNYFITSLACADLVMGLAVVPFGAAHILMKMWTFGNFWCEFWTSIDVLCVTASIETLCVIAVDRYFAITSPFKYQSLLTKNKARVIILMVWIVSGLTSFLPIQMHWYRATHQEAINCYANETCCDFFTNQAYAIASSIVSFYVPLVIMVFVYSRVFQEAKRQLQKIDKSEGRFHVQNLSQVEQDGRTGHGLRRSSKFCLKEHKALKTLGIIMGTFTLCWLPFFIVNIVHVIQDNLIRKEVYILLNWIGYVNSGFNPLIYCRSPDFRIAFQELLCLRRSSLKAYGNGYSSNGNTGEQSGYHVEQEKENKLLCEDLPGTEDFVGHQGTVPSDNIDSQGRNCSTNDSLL

| EC50 (β2-adrenoreceptor) [nM] | EC50 (β1-adrenoreceptor; [2]) [nM] | SMILES | other results |
| --- | --- | --- | --- |
| 0.92 | 9.52 | COc1ccc(OC)c2c1CC(NC[C@H](O)c1ccc(O)c3[nH]c(=O)ccc13)C2 [Example 1, (R)-8-hydroxy-5-[2-(4,7-Dimethoxy-indan-2-ylamino)-1-hydroxy-ethyl]-1H-quinolin-2-one hydrochloride] | – |
| 0.23 | – | CCc1cc2c(cc1CC)CC(NCC(O)c1ccc(O)c3[nH]c(=O)ccc13)C2 (stereo not shown) [Example 2, 8-hydroxy-5-[2-(5,6-diethyl-indan-2-ylamino)-1-hydroxy-ethyl]-1H-quinolin-2-one] | EC50 (β1-adrenoreceptor): 1.25 nM; T(50%), time for inhibition of contraction to decay to 50% of its maximum value ([1]; at 71 nM concentration): > 400 min |
| 6.07 | 14.5 | CCc1ccc(CC)c2c1CC(NC[C@H](O)c1ccc(O)c3[nH]c(=O)ccc13)C2 [Example 4] | T(50%), time for inhibition of contraction to decay to 50% of its maximum value ([1]; at 100 nM): 82 min |
| 0.79 | 6.1 | O=c1ccc2c([C@@H](O)CNC3Cc4cc5c(cc4C3)CCCC5)ccc(O)c2[nH]1 [Example 5] | T(50%), time for inhibition of contraction to decay to 50% of its maximum value ([1]; at 100 nM): 444 min |
| 0.3 | 3.6 | O=c1ccc2c([C@@H](O)CNC3Cc4cc5c(cc4C3)OCCO5)ccc(O)c2[nH]1 [Example 6] | – |
| 0.57 | 8.46 | CCCc1cc2c(cc1CCC)CC(NC[C@H](O)c1ccc(O)c3[nH]c(=O)ccc13)C2 [Example 8] | – |
| 0.012 | 0.5 | CC1(NC[C@H](O)c2ccc(O)c3[nH]c(=O)ccc23)Cc2ccccc2C1 [Example 27, 8-Hydroxy-5-[(R)-1-hydroxy-2-(2-methyl-indan-2-ylamino)-ethyl]-1H-quinolin-2-one] | T(50%), time for inhibition of contraction to decay to 50% of its maximum value ([1]; at 1.0 nM): 222 min |
| – | – | CC1(NC[C@H](O)c2ccc(O)c3[nH]c(=O)ccc23)Cc2cc3c(cc2C1)CCCC3 [Example 29, 8-Hydroxy-5-[(R)-1-hydroxy-2-(2-methyl-2,3,5,6,7,8-hexahydro-1H-cyclopenta[b]naphthalen-2-ylamino)-ethyl]-1H-quinolin-2-one] | T(50%), time for inhibition of contraction to decay to 50% of its maximum value ([1]; at 10 nM): 279 min |
